Assay type in all cases: cell-based
One experiment relates to Bacillus megaterium. Briefly: Inhibition zone assay repeated with Bacillus megaterium (Example 4). To be noted: times higher than in relation to E. coli. The procedure: (§1) The antibacterial activity of the polypeptide of this invention was determined by inhibition zone assay as described by Hultmark et al. (Hultmark, D., Engstrom, A., Anderson, K., Steiner, H., Bennich, H. and Boman, H. G. (1983). Insect immunity. Attacins, a family of antibacterial proteins from Hyalophora cecropia. EMBO J. 2, 571-576).
(§2) Log-phase bacteria were grown to a density of 100 units on a Klett-summerson photoelectric colorimeter. They were diluted 50 times with LB medium and 50 μl of the bacteria suspension was mixed with 6 ml of 1.0% agarose in LB medium (w/v) and poured on the petri dishes (Falcon 1001 Optilux) with inner diameter 8.65 cm. For E. coli this procedure will give about 2×10^5 bacteria per plate.
The plates were left for 1 hour at room temperature, and holes with 3 mm diameter were made on the solidified agarose. 100 μl of fractions were dried in a speedvac and dissolved in 10 μl H2 O, of which 3 μl was applied to the holes. After 30 min diffusion time the plates were incubated at 30° C. overnight. The diameter of the inhibition zones were measured and the relative unit activity was calculated from a standard curve which was constructed on varying amount of Cecropin A versus activity. One microgram of Cecropin A corresponds to 1000 units of activity. […]

Experiment [1] has as its system Acinetobacter calcoaceticus Ac11. Nature of the experiment: Inhibition zone assay of PR-peptide on different bacteria. The note with it: strain Ac11. The procedure: as §1, §2
(§3) The plates were left for 1 hour at room temperature, and holes with 3 mm diameter were made on the solidified agarose. 100 μl of fractions were dried in a speedvac and dissolved in 10 μl H2 O, of which 3 μl was applied to the holes. After 30 min diffusion time the plates were incubated at 30° C. overnight. The diameter of the inhibition zones were measured and the relative unit activity was calculated from a standard curve which was constructed on varying amount of Cecropin A versus activity. One microgram of Cecropin A corresponds to 1000 units of activity.
(§4) The maximum concentration of PR-peptide was 2,5 mM and 3 μl was applied to each well in thin agarose plates seeded with test bacterium. LV values are obtained from a dilution serie and is the lowest concentration giving killing (Muirmark, D., Engstrem, A., Anderson, K., Steiner, H., Bennich, H. and Boman, H. G. (1983))

Another experiment concerns Bacillus megaterium Bm11. The description is as above. To be noted: strain Bm11. How it is done: as §1, §2, §3, §4
The subject of the next experiment is Bacillus subtilis Bs11. Described as above. The note with it: strain Bs11. How it is done: as §1, §2, §3, §4
For experiment [2], the system named is Escherichia coli Bd2221/75. Described as above. The note with it: strain Bd2221/75. How it is done: as §1, §2, §3, §4
The next experiment relates to Escherichia coli K12 D21. The experiment is described as above. The note with it: strain D21. The procedure: as §1, §2, §3, §4
The test system of a further experiment is Proteus vulgaris Pv11. The description is as above. The note with it: strain Pv11. The procedure: as §1, §2, §3, §4
Experiment [3] concerns Pseudomones aeruginose OT97. The experiment is described as above. The note with it: strain OT97. How it is done: as §1, §2, §3, §4
The test system of experiment [4] is Salmonella typhimurium L12. Described as above. The note with it: strain L12. The procedure: as §1, §2, §3, §4
Experiment [5] has as its system Staphylococcus aureus Cowan 1. The experiment is described as above. The note with it: strain Cowan 1. The procedure:
as §1, §2, §3, §4

A further experiment concerns Streptococcus pyrogenes. Described as above. The procedure:
as §1, §2, §3, §4

Setting [6] is: lowest concentration giving killing, from dilution series.
Where [7] appears, read: maximum concentration 2,5 mM, 3 μl per well, thin agarose plates.

No end group written: not given here.

On to “RRRPRPPYLPRPRPPPFFPPRLPPRIPPGFPPRFPPRFP [PR-peptide, bactericidal polypeptide isolated from pig small intestine]”, for which the “average activity against Bacillus megaterium relative to E. coli” value with Bacillus megaterium was “about 3 times”. Further, the LC value was 3 µM in [1] (setting [6]); 0,3 μM in the experiment with Bacillus megaterium Bm11 (setting [6]); 15 µM in the experiment with Bacillus subtilis Bs11 (setting [6]); 0,3 μM in experiment [2] (setting [6]); 0,3 μM with Escherichia coli K12 D21 (setting [6]); 300 µM in the experiment on Proteus vulgaris Pv11 (setting [6]). For the same sequence, the LC value was determined as 200 µM in experiment [3] (setting [6]), 1 µM in experiment [4] (setting [6]), 200 µM in [5] (setting [6]) and 2 µM with Streptococcus pyrogenes (setting [6]). Besides, the Max zone is 12,5 mm in [1] (setting [7]); 17,4 mm in the experiment with Bacillus megaterium Bm11 (setting [7]); 10,3 mm in the experiment with Bacillus subtilis Bs11 (setting [7]); 17,6 mm in [2] (setting [7]); 18,3 mm in the experiment on Escherichia coli K12 D21 (setting [7]); 3,5 mm in the experiment on Proteus vulgaris Pv11 (setting [7]). In addition, the Max zone is recorded as 4,5 mm in experiment [3] (setting [7]), 15,2 mm in experiment [4] (setting [7]), 3,7 mm in [5] (setting [7]) and 14,9 mm in the experiment on Streptococcus pyrogenes (setting [7]).

(Values after patent publication US5489575A, “Polypeptides and their use” (Boman; Hans G., priority 1991, dated 1996).)
